# Laboratory results as given in PMC6152084, “Synthesis of New Hydrazone Derivatives for MAO Enzymes Inhibitory Activity” (Molecules : A Journal of Synthetic Chemistry and Natural …, 2017).
# “Also recorded” adds a separate entry of the source. Marks after values point to notes of the source that are not given here.
# Tests used:
# [1] = system: Salmonella typhimurium TA100; assay: Ames MPF genotoxicity test, TA100; format: cell-based; details: for mutagenicity classification against TA100: with/without metabolic activation (S9)
# Experimental: An Ames MPF assay was performed to investigate the genotoxicity of the compounds 2a and 2b.
# The genotoxicity of the compounds was determined by Ames assay as previously described using the Ames MPF 98/100 mutagenicity test sample kit (Xenometrix AG, Allschwil, Switzerland). This test was performed with Salmonella typhimurium strains TA98 (frameshift mutations) and TA100 (base-pair substitutions). Compounds was prepared in six different concentrations (5, 2.5, 1.25, 0.625, 0.3125, 0.156 mg/mL) which was between […] and 5000 µg/mL according to the previous guidelines in DMSO. In order to detect mutagenic potential, test performed with and without Aroclor™-1254 induced male Sprague-Dawley rat liver microsomal enzyme (S9) mix (Xenometrix AG). While the positive control for TA 98 without S9 mix was 2-nitrofluorene (2 μg/mL), 1 μg/mL of 2-aminoanthracene was positive control with S9 against TA 98. For TA100, 4-nitroquinoline N-oxide (0.1 μg/mL) was positive control without S9 mix and 2.5 μg/mL of 2-aminoanthracene was positive control. 4% DMSO solution was the solvent control. At the end of the experiment, revertant bacteria decreased the pH of solution and indicator medium colour was changed to yellow. Yellow wells were counted as positive and compared with the negative control. Fold induction over the negative control and fold induction over the baseline were calculated. Fold induction over the negative control is the ratio of the mean number of positive wells for the dose concentration divided by the mean number of positive wells for the zero dose (negative) control. Fold induction over the baseline is the ratio of the mean number of positive wells for the dose concentration divided by zero dose baseline. The zero dose baseline is obtained by adding one standard deviation to the mean number of positive wells of the zero dose control. Mutagenity was determined according to the criteria from previous studies. For a baseline value ≤ 3, significant increases between 2 and 3-fold the baseline were classified as weak mutagen, increases ≥ 3-fold the baseline were classified as mutagen. For a baseline was > 3, significant increases between 1.5 and 2.5-fold the baseline were classified as weak mutagen, and increases ≥ 2.5-fold the baseline, were classified as mutagen. In principle, for a mutagenic compound, at least two adjacent doses with significant increase or a significant increase at the highest dose level should be observed. All doses were compared according to Student’s t-test at p < 0.05 as statistically.
# hMAO-A = biological target: T1, hMAO-A (Homo sapiens, UniProt P21397); assay: Enzyme kinetics (Lineweaver-Burk plots, tyramine substrate); format: biochemical; details: for type of inhibition of hMAO-A: Lineweaver-Burk plot
# T1 construct: purchased Sigma-Aldrich (Steinheim, Germany)
# T1 sequence (P21397 1-527): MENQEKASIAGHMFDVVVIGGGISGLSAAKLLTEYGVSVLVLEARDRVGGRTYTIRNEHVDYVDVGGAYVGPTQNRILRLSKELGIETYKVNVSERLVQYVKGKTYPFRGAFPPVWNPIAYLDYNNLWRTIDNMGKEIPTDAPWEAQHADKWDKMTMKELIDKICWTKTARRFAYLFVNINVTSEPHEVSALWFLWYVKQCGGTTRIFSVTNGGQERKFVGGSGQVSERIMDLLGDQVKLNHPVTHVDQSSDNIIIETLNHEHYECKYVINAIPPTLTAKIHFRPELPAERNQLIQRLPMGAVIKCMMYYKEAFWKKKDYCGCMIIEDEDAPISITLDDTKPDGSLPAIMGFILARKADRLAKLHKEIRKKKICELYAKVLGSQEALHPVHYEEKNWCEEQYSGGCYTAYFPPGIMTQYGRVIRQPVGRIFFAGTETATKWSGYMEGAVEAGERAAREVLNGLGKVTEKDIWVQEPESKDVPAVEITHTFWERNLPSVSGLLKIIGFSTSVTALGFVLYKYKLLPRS
# Experimental: The mechanism of hMAO-A inhibition was investigated by enzyme kinetics, following a similar procedure to the MAO inhibition assay. The linear Lineweaver-Burk graphics were used to estimate the type of inhibition. […] In each case, the initial velocity measurements were gained at different substrate (tyramine) concentrations ranging from 20 μM to 0.625 μM. The Ki (intercept on the x-axis) values of compounds 2a and 2b were determined from the secondary plot of the Km/Vmax (slope) versus varying concentrations.
# Based on the type of interaction with the enzyme, inhibitor binding can be classified as either reversible or irreversible. The type of inhibition can be determined by the Lineweaver-Burk plot as mixed-type, uncompetitive, competitive, or noncompetitive, which are the indicators of a reversible inhibitor [23]. It is known that in the uncompetitive type inhibition a graphic, including the parallel lines without any cross, is observed. If the lines cross neither the x- nor the y-axis at the same point the inhibition type is called mixed-type. Noncompetitive inhibition is seen if the plots intersect on the x-axis. There are different slopes and intercepts on the y-axis. On the other hand, competitive inhibition gives the opposite situation. This type of inhibition has plots with the same intercept on the y-axis but there are diverse slopes and intercepts on the x-axis, which are observed in Figure 2 and Figure 3.
# The same materials were used as in the MAO inhibition assay. […] The solutions of inhibitor (20 μL/well) and enzyme were added to the flat black bottom 96-well micro test plate, and incubated at 37 °C for 30 min. After incubation period, the working solution, including various concentrations (20, 10, 5, 2.5, 1.25, and 0.625 μM) of tyramine (100 μL/well) was added. The increase of the fluorescence (Ex/Em = 535/587 nm) was recorded for 30 min. A parallel experiment was carried out without inhibitor. All processes were assayed in quadruplicate. The results were analyzed as Lineweaver-Burk plots using Microsoft Office Excel 2013. The Km/Vmax (slope) values of the Lineweaver-Burk plots were replotted versus the inhibitor concentration, and the Ki values were determined from the x-axis intercept as −Ki.
# [2] = system: NIH/3T3 mouse embryonic fibroblast cell line; assay: Cytotoxicity test (MTT assay); format: cell-based; details: for IC50: Mus musculus, NIH3T3, MTT, read-out: IC50 against NIH/3T3 cells; for cytotoxicity (in words): at effective concentration against hMAO-A
# Experimental: In cytotoxicity test by using NIH/3T3 mouse embryonic fibroblast cell line (ATCC® CRL-1658™, London, UK), firstly NIH/3T3 cells were incubated in the Dulbecco’s Modified Eagle’s Medium (DMEM, Sigma Aldrich, St. Louis, MO, USA). NIH/3T3 cells were plated on 96-well culture plates as 10,000 cells per well and were then treated with the compounds at concentrations ranging from 1000 µM to 0.316 µM (1000, 316, 100, 31.6, 10, 3.16, 1, 0.316 µM). MTT assay was performed as previously described. Dose-response curves were plotted against compound concentrations applied to determine IC50 values.
SMILES,"Revertants Fold Increase (Over Baseline) ([1]; TA 100, S9+, 0.156 mg/mL)","Revertants Fold Increase (Over Baseline) ([1]; TA 100, S9+, 0.3125 mg/mL)","Revertants Fold Increase (Over Baseline) ([1]; TA 100, S9+, 0.625 mg/mL)","Revertants Fold Increase (Over Baseline) ([1]; TA 100, S9+, 1.25 mg/mL)","Revertants Fold Increase (Over Baseline) ([1]; TA 100, S9+, 2.5 mg/mL)","Revertants Fold Increase (Over Baseline) ([1]; TA 100, S9+, 5 mg/mL)","Revertants Fold Increase (Over Baseline) ([1]; TA 100, S9−, 0.156 mg/mL)","Revertants Fold Increase (Over Baseline) ([1]; TA 100, S9−, 0.3125 mg/mL)","Revertants Fold Increase (Over Baseline) ([1]; TA 100, S9−, 0.625 mg/mL)","Revertants Fold Increase (Over Baseline) ([1]; TA 100, S9−, 1.25 mg/mL)","Revertants Fold Increase (Over Baseline) ([1]; TA 100, S9−, 2.5 mg/mL)","Revertants Fold Increase (Over Baseline) ([1]; TA 100, S9−, 5 mg/mL)","Fold-inductions over baseline ([1]; TA100, absence and presence of S9, each concentration)",mutagenicity classification against TA100 [1],Vmax value of the competitive inhibition (hMAO-A) [nmol/min/mg protein],type of inhibition of hMAO-A (hMAO-A),"Ki (hMAO-A; secondary plot of Km/Vmax (slope) versus inhibitor concentration, read-out: Ki for the inhibition of hMAO-A) [µM]",IC50 [2] [µM],cytotoxicity (in words) [2],"Fold-inductions over baseline ([1]; TA100 with S9, each concentration)"
"CC1CCCCN1c1ccc(/C=N/Nc2ccccc2)cc1 (stereo not shown) [Compound 2a, 1-(4-(2-Methypiperidin-1-yl)benzylidene)-2-phenylhydrazine]",0.99,0.69,0.91,0.95,0.39,0.82,0.44,0.63,0.24 *,0.19 *,0.05 *,0.00 *,less than 1.5,not genotoxic,85.517 ± 2.332,reversible and competitive,0.188,930 ± 15.4,non-cytotoxic; also recorded: not cytotoxic,–
"CN1CCN(c2ccc(C=NNc3ccccc3)cc2)CC1 [Compound 2b, 1-(4-(4-Methylpiperazine-1-yl)benzylidene)-2-phenylhydrazine]",1.46 *,1.40,1.46,0.79,0.12 *,0.00 *,0.40,0.17 *,0.06 *,0.03 *,0.00 *,0.00 *,–,non-mutagenic,79.360 ± 5.704,reversible and competitive,–,20 ± 1.32,non-cytotoxic; also recorded: not cytotoxic,≤ 1.5
